Assay results published in the SangsterLogP compilation.

logP	Compound
3.77	C=C(C)C(=O)OCC(C)(O)COc1cccc2ccccc12 (stereo unspecified)
0.79	C=C(C)C(=O)OC
1.38	COC(C(=O)c1ccccc1)c1ccccc1 (stereo unspecified)
3.46	O=C(OOC(=O)c1ccccc1)c1ccccc1
1.88	C=C(C)C(=O)OCCOCCOCCOC(=O)C(=C)C
2.18	C=Cc1ccc(C(=O)O)cc1
3.31	C=C(C)C(=O)OCC(O)COc1cccc2ccccc12 (stereo unspecified)
1.5	C=C(C)C(=O)OCC
1.09	Cc1ccc(N(CCO)CCO)cc1
2.18	C=C(C)C(=O)OCC(O)COc1ccccc1 (stereo unspecified)

Compound	logP
C=C(C)C(=O)OCC(CC)CCCC (stereo unspecified)	4.67
